Experimental data: ChEMBL document CHEMBL1140819, “Protected aminooxyprolines for expedited library synthesis: application to Tsg101-directed proline-oxime containing peptides” (Bioorg Med Chem Lett, 2008)
*1 amine or outer side, *2 acyl side, *3 side chain or, on linkers, in order; H or OH if unused. Where a SMILES comes first, the peptide text is derived from it. [ ]: non-standard residue; d: D form. The star is where a group is joined. ξ: configuration not given here. Fluorescein(5-NHCS) = O=C1OC2(c3ccc(O)cc3Oc3cc(O)ccc32)c2cc(NC(=S)*)ccc21; X48 = O=C([C@@H]1C[C@@H](O/N=C\c2c(F)c(F)c(F)c(F)c2F)CN1[*:1])[*:2]; X7 = O=C([C@@H]1[C@@H](O/N=C\c2c(F)c(F)c(F)c(F)c2F)CCN1[*:1])[*:2]; X33 = CC(/C=N\O[C@H]1C[C@@H](C(=O)[*:2])N([*:1])C1)=C\c1ccccc1; X5 = CC(/C=N\O[C@@H]1C[C@@H](C(=O)[*:2])N([*:1])C1)=C\c1ccccc1; X27 = N#Cc1ccc(/C=N\O[C@@H]2C[C@@H](C(=O)[*:2])N([*:1])C2)cc1; X16 = COc1ccc(/C=N\O[C@H]2CCN([*:1])[C@@H]2C(=O)[*:2])cc1O; X24 = O=C([C@@H]1[C@@H](O/N=C\c2ccccc2)CCN1[*:1])[*:2]; X20 = O=C(O)CC/C=N\O[C@H]1CCN([*:1])[C@@H]1C(=O)[*:2]; X44 = O=C([C@@H]1[C@@H](O/N=C\c2ccoc2)CCN1[*:1])[*:2]; X2 = CCCCC/C=N\O[C@H]1C[C@@H](C(=O)[*:2])N([*:1])C1; X3 = CCCCC/C=N\O[C@H]1CCN([*:1])[C@@H]1C(=O)[*:2]; ξPip = O=C(O)C1CCCCN1; Ava = NCCCCC(=O)O

Biological target: T1, Tumor susceptibility gene 101 protein (Homo sapiens, UniProt Q99816)
T1 sequence (Q99816 whole entry): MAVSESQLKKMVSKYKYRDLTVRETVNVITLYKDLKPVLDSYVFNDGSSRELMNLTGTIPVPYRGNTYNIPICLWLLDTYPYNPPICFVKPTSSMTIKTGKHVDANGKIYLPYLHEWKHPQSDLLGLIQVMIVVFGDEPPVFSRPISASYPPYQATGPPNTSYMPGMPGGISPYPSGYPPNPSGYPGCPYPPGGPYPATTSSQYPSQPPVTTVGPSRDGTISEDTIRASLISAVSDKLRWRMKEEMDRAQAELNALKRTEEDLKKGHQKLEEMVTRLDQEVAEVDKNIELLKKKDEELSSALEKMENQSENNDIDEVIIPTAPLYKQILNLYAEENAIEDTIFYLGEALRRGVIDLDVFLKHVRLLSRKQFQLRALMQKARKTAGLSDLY
Test: Binding affinity to Tsg101

IC50 [µM]	Compound
13	CC(/C=N\O[C@@H]1C[C@@H](C(=O)N[C@@H](CCC(=O)O)C(=O)N[C@@H](CCC(=O)O)C(N)=O)N(C(=O)C2CCCCN2C(=O)[C@H](C)NC(=O)[C@@H](NC(=O)[C@@H]2CCCN2C(=O)[C@H](CCC(=O)O)NC(=O)[C@@H]2CCCN2C(=O)CCCCNC(=S)Nc2ccc3c(c2)C2(OC3=O)c3ccc(O)cc3Oc3cc(O)ccc32)[C@@H](C)O)C1)=C\c1ccccc1 (stereo partly specified) ({Fluorescein(5-NHCS)-Ava}-PEPTA[ξPip][X5]EE-NH2)
13	COc1ccc(/C=N\O[C@H]2CCN(C(=O)C3CCCCN3C(=O)[C@H](C)NC(=O)[C@@H](NC(=O)[C@@H]3CCCN3C(=O)[C@H](CCC(=O)O)NC(=O)[C@@H]3CCCN3C(=O)CCCCNC(=S)Nc3ccc4c(c3)C3(OC4=O)c4ccc(O)cc4Oc4cc(O)ccc43)[C@@H](C)O)[C@@H]2C(=O)N[C@@H](CCC(=O)O)C(=O)N[C@@H](CCC(=O)O)C(N)=O)cc1O (stereo partly specified) ({Fluorescein(5-NHCS)-Ava}-PEPTA[ξPip][X16]EE-NH2)
15	C[C@H](NC(=O)[C@@H](NC(=O)[C@@H]1CCCN1C(=O)[C@H](CCC(=O)O)NC(=O)[C@@H]1CCCN1C(=O)CCCCNC(=S)Nc1ccc2c(c1)C1(OC2=O)c2ccc(O)cc2Oc2cc(O)ccc21)[C@@H](C)O)C(=O)N1CCCCC1C(=O)N1CC[C@H](O/N=C\c2ccccc2)[C@H]1C(=O)N[C@@H](CCC(=O)O)C(=O)N[C@@H](CCC(=O)O)C(N)=O (stereo partly specified) ({Fluorescein(5-NHCS)-Ava}-PEPTA[ξPip][X24]EE-NH2)
23	CCCCC/C=N\O[C@H]1CCN(C(=O)C2CCCCN2C(=O)[C@H](C)NC(=O)[C@@H](NC(=O)[C@@H]2CCCN2C(=O)[C@H](CCC(=O)O)NC(=O)[C@@H]2CCCN2C(=O)CCCCNC(=S)Nc2ccc3c(c2)C2(OC3=O)c3ccc(O)cc3Oc3cc(O)ccc32)[C@@H](C)O)[C@@H]1C(=O)N[C@@H](CCC(=O)O)C(=O)N[C@@H](CCC(=O)O)C(N)=O (stereo partly specified) ({Fluorescein(5-NHCS)-Ava}-PEPTA[ξPip][X3]EE-NH2)
16	C[C@H](NC(=O)[C@@H](NC(=O)[C@@H]1CCCN1C(=O)[C@H](CCC(=O)O)NC(=O)[C@@H]1CCCN1C(=O)CCCCNC(=S)Nc1ccc2c(c1)C1(OC2=O)c2ccc(O)cc2Oc2cc(O)ccc21)[C@@H](C)O)C(=O)N1CCCCC1C(=O)N1CC[C@H](O/N=C\CCC(=O)O)[C@H]1C(=O)N[C@@H](CCC(=O)O)C(=O)N[C@@H](CCC(=O)O)C(N)=O (stereo partly specified) ({Fluorescein(5-NHCS)-Ava}-PEPTA[ξPip][X20]EE-NH2)
20	C[C@H](NC(=O)[C@@H](NC(=O)[C@@H]1CCCN1C(=O)[C@H](CCC(=O)O)NC(=O)[C@@H]1CCCN1C(=O)CCCCNC(=S)Nc1ccc2c(c1)C1(OC2=O)c2ccc(O)cc2Oc2cc(O)ccc21)[C@@H](C)O)C(=O)N1CCCCC1C(=O)N1C[C@H](O/N=C\c2ccc(C#N)cc2)C[C@H]1C(=O)N[C@@H](CCC(=O)O)C(=O)N[C@@H](CCC(=O)O)C(N)=O (stereo partly specified) ({Fluorescein(5-NHCS)-Ava}-PEPTA[ξPip][X27]EE-NH2)
32	C[C@H](NC(=O)[C@@H](NC(=O)[C@@H]1CCCN1C(=O)[C@H](CCC(=O)O)NC(=O)[C@@H]1CCCN1C(=O)CCCCNC(=S)Nc1ccc2c(c1)C1(OC2=O)c2ccc(O)cc2Oc2cc(O)ccc21)[C@@H](C)O)C(=O)N1CCCCC1C(=O)N1C[C@H](O/N=C\c2c(F)c(F)c(F)c(F)c2F)C[C@H]1C(=O)N[C@@H](CCC(=O)O)C(=O)N[C@@H](CCC(=O)O)C(N)=O (stereo partly specified) ({Fluorescein(5-NHCS)-Ava}-PEPTA[ξPip][X48]EE-NH2)
58	CC(/C=N\O[C@H]1C[C@@H](C(=O)N[C@@H](CCC(=O)O)C(=O)N[C@@H](CCC(=O)O)C(N)=O)N(C(=O)C2CCCCN2C(=O)[C@H](C)NC(=O)[C@@H](NC(=O)[C@@H]2CCCN2C(=O)[C@H](CCC(=O)O)NC(=O)[C@@H]2CCCN2C(=O)CCCCNC(=S)Nc2ccc3c(c2)C2(OC3=O)c3ccc(O)cc3Oc3cc(O)ccc32)[C@@H](C)O)C1)=C\c1ccccc1 (stereo partly specified) ({Fluorescein(5-NHCS)-Ava}-PEPTA[ξPip][X33]EE-NH2)
42	CCCCC/C=N\O[C@H]1C[C@@H](C(=O)N[C@@H](CCC(=O)O)C(=O)N[C@@H](CCC(=O)O)C(N)=O)N(C(=O)C2CCCCN2C(=O)[C@H](C)NC(=O)[C@@H](NC(=O)[C@@H]2CCCN2C(=O)[C@H](CCC(=O)O)NC(=O)[C@@H]2CCCN2C(=O)CCCCNC(=S)Nc2ccc3c(c2)C2(OC3=O)c3ccc(O)cc3Oc3cc(O)ccc32)[C@@H](C)O)C1 (stereo partly specified) ({Fluorescein(5-NHCS)-Ava}-PEPTA[ξPip][X2]EE-NH2)
20	C[C@H](NC(=O)[C@@H](NC(=O)[C@@H]1CCCN1C(=O)[C@H](CCC(=O)O)NC(=O)[C@@H]1CCCN1C(=O)CCCCNC(=S)Nc1ccc2c(c1)C1(OC2=O)c2ccc(O)cc2Oc2cc(O)ccc21)[C@@H](C)O)C(=O)N1CCCCC1C(=O)N1CC[C@H](O/N=C\c2ccoc2)[C@H]1C(=O)N[C@@H](CCC(=O)O)C(=O)N[C@@H](CCC(=O)O)C(N)=O (stereo partly specified) ({Fluorescein(5-NHCS)-Ava}-PEPTA[ξPip][X44]EE-NH2)
19	C[C@H](NC(=O)[C@@H](NC(=O)[C@@H]1CCCN1C(=O)[C@H](CCC(=O)O)NC(=O)[C@@H]1CCCN1C(=O)CCCCNC(=S)Nc1ccc2c(c1)C1(OC2=O)c2ccc(O)cc2Oc2cc(O)ccc21)[C@@H](C)O)C(=O)N1CCCCC1C(=O)N1CC[C@H](O/N=C\c2c(F)c(F)c(F)c(F)c2F)[C@H]1C(=O)N[C@@H](CCC(=O)O)C(=O)N[C@@H](CCC(=O)O)C(N)=O (stereo partly specified) ({Fluorescein(5-NHCS)-Ava}-PEPTA[ξPip][X7]EE-NH2)
